# In patent publication US20090062255A1, “TUMOR-TARGETING EVALUATION METHODOLOGY AND COMPOUNDS RELATED THERETO” (THALLION PHARMACEUTICALS INC., priority 2007, published 2009):
# Experiments:
# in vivo = conditions: CD-1 nu/nu, mouse, iv
# [1] = test system: genes involved in steroid biosynthesis, cholesterol transport/metabolism, signal transduction and apoptosis; assay: Gene expression in animals treated with Compound 1; conditions: in vivo
# 9L gliosarcoma cell line = assay: MTT cytotoxicity, 9L cell line; format: cell-based; conditions: 96 h, Rat
# Experimental: (§1) The cytotoxic activity of Compound 1 was further evaluated using a panel of brain tumor cell lines. This study was performed in collaboration with INSERM (Grenoble, France). Tumor cells (5,000 to 10,000 cells per well depending on their doubling time) were plated in 96-well flat-bottom plates and incubated for 24 hours before treatment. Tumor cells were then incubated for 96 hours with seven different concentrations of Compound 1: […], 0.01, and 0.001 μM. The in vitro cytotoxic activity was determined by a standard MTT assay.
# [2] = target: GABAA, the Central Benzodiazepine Receptor (CBR); assay: CBR radioligand binding assay ([3H]flunitrazepam, rat brain); conditions: 1 nM [3H]-Flunitrazepam
# From the text: GABAA, the Central Benzodiazepine Receptor (CBenzR or CBR) is involved in anxiolitic activities.
# The procedures used were based on known assays: ACAT (from rat; Ref: Largis et al (1989), J. Lipid. Res., vol 30, 681-689), COX-2 (human; Ref: Riendeau et al (1997), Can. J. Physiol. Pharmacol., vol 75, 1088-1095 and Warner et al (1999), Pro. Natl. Acad. Sci. USA, vol 96, 7563-7568), 5-LO (human; Ref: Carter et al (1991), J. Pharmacol. Exp. Ther., vol 256, no 3, 929-937, and Safayhi et al (2000), Planta Medica, vol 66, 110-113), PBR (from rat; Le Fur et al (1983), Life Sci. USA, vol 33, 449-457), CysLT1 (human; Martin et al (2001), Biochem. Pharmacol., vol 62, no 9, 1193-1200) and CBR (from rat; Damm et al (1978), Res. Comm. Chem. Pathol. Pharmacol., vol 22, 597-600 and Speth et al (1979), Life Sci., vol 24, 351-357).
# Binding Assays were done at constant concentration of the compound, in 1% DMSO as vehicle, and are specified below each enzyme/receptor type in Table 18. The results are expressed in Table 18 as percentage inhibition. […]
# As Compound 1 was isolated from structural prediction through genetic analysis and activity identified through in vitro cytotoxic assays, its molecular target(s) were unknown at the time of discovery. […] The effect of ECO-4601 on CBR (GABAA) and PBR was initially evaluated in a radioligand-binding assay at MDS Pharma Services (Taipei, Tawain). […]
# [3] = test system: GHD astrocytoma cell line; assay: MTT cytotoxicity, GHD cell line; format: cell-based; conditions: 96 h, Human
# Experimental: as §1
# human MAPK2 (ERK2) = target: T1, human MAPK2 (ERK2) (Homo sapiens, UniProt P28482); assay: Upstate Kinase Profiler, MAPK2 (ERK2); format: biochemical
# T1 construct: purchased Upstate (Kinase Profiler Service; Dundee, UK)
# Experimental: Unlike current Ras signalling pathway inhibitors, ECO-4601 is not a direct kinase inhibitor. This was documented by evaluating the effect of ECO-4601 on human EGFR, c-RAF, MEK1, MAPK1 (ERK1) and MAPK2 (ERK2) kinase-activity (Upstate Kinase Profiler™ Service; Dundee, UK). ECO-4601 was tested at 0.5 μM and 5 μM in a final volume of 25 μL according to standard protocols developed by Upstate Ltd. Briefly, purified recombinant human enzymes were incubated with 25 mM Tris pH 7.5 containing EGTA, a specific substrate and γ-^32P-ATP. The reaction was initiated with MgATP mix and incubated for 40 minutes at RT. The reaction was stopped by the addition of 5 μL of a 3% phosphoric acid solution; aliquots were spotted on filters and counted. Detailed procedures are available on the Millipore Upstate website.
# [4] = target: T2, peripheral benzodiazepine receptor (PBR) (Rattus norvegicus, UniProt P16257); assay: In-house PBR binding assay ([3H]PK11195, rat heart mitochondrial membranes)
# T2 construct: CBR and PBR were obtained from rat brain and heart membrane-fractions, respectively; from tissue; host or cells: Wistar rat heart membranes
# human MiaPaCa-2 tumors = assay: Human MiaPaCa-2 tumors in mice, antitumor efficacy; format: in vivo; conditions: 30 mg/kg SC, Q1D×5 for 3 wk, established MiaPaCa-2 tumors
# Experimental: Mice bearing established (100 mm^3) human MiaPaCa-2 tumors were dosed with 30 mg/kg (Q1D×5 for 3 wk; SC administration). The positive control group was treated with gemcitabine at 60 mg/kg once a day on Monday and Thursday (TWx4). ECO-4601 as a single agent was statistically different from the vehicle control group (P ˜0.008) following SC daily dosing resulting in a T/C of 56% (FIG. 12).
# GTP-bound Ras = assay: Ras activation pull-down assay (GST-Raf-RBD) in MCF-7 cells; format: cell-based, human; conditions: 6 h treatment, EGF 5 min
# Experimental: Following EGF induction, Ras is activated by a nucleotide exchange reaction that removes GDP and replaces it with GTP. Physiological levels of total cellular GTP-bound Ras can be detected with pull-down assays. MCF-7 cells were treated with increasing concentrations of ECO-4601 for 6 h and the Ras-MAPK signalling pathway was then induced with EGF. After a 5 min induction period, cells were lysed and incubated with a recombinant fusion protein that contains the isolated Ras Binding Domain of c-Raf-1 fused the gluthathione-S-transferese (GST; designated GST-Raf-RBD). The presence of Ras in the GST-Raf-RBD protein complex is resolved by western blotting. As expected, after EGF induction, an increase of Ras-GTP was observed.
# T1 sequence (P28482 whole entry): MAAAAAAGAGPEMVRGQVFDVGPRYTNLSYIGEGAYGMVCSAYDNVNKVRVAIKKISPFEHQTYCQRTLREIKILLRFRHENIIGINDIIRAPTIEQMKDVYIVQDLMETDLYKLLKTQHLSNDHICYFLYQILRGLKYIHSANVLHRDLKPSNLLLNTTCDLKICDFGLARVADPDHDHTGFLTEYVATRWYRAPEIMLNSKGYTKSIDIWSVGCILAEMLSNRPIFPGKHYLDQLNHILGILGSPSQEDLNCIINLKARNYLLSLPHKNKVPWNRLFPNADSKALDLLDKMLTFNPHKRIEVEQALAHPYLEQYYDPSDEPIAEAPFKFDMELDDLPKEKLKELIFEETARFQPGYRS
Compound,MTD (in vivo) [mg/kg],expression of several genes in treated animals [1],IC50 (9L gliosarcoma cell line) [µM],IC50 [2] [µM],IC50 [3] [µM],direct inhibition of ERK2 kinase activity (in words) (human MAPK2 (ERK2); 0.5 μM and 5 μM),"activity at 0.5 µM (human MAPK2 (ERK2); MAPK2 (ERK2), 0.5 μM, % of enzyme activity over positive control, read-out: Kinase Activity (%) ± SD) [%]","activity at 5 µM (human MAPK2 (ERK2); MAPK2 (ERK2), 5 μM, % of enzyme activity over positive control, read-out: Kinase Activity (%) ± SD) [%]",EC50 [4] [µM],PBR binding (in words) [4],"Ki ([4]; Ki=EC50/(1+[ligand]/Kd), [ligand]=1.6 nM, read-out: calculated Ki) [µM]",IC50 ([4]; in-house radioligand-binding assay) [µM],T/C (human MiaPaCa-2 tumors) [%],effect on EGF-induced Ras activation (Ras-GTP) (GTP-bound Ras)
"CC(C)=CCC/C(C)=C/CC/C(C)=C/CN1C(=O)c2cccc(O)c2N(C)c2c(O)cc(O)cc21 [Compound 2, 10-farnesyl-4,6,8-trihydroxy-5-methyl-5,10-dihydro-dibenzo[b,e][1,4]diazepin-11-one]",> 100,–,–,–,–,–,–,–,–,–,–,–,–,–
"CC(C)=CCC/C(C)=C/CC/C(C)=C/CN1C(=O)c2cccc(O)c2Nc2c(O)cc(O)cc21 [Compound 1, 10-farnesyl-4,6,8-trihydroxy-5,10-dihydrodibenzo[b,e][1,4]diazepin-11-one]",–,increased expression,8.3 ± 3.8,> 10,6.5 ± 2.9,does not directly inhibit,116 ± 1,110 ± 1,2.8,bind the PBR,~1.4,2.7,56,prevented EGF from activating Ras
